Values of other authors, collected in US20080227642A1, “Salts, aqueous liquid compositions containing salts of abscisic acid analogs and methods of their preparation” (priority 2007, published 2008).

Conditions: room temperature

For `CC1=CC(=O)CC(C)(C)[C@@]1(O)/C=C/C(C)=C\C(=O)O` [(S)-(+)-abscisic acid, 2-cis-,4-trans-(S)-(+)-abscisic acid], the “highest concentration that can be achieved in pure water” value is listed as “about 3000 ppm”.
